Molecular target: T1, SMYD3 (Homo sapiens, UniProt Q9H7B4)
T1 sequence (Q9H7B4 1-428): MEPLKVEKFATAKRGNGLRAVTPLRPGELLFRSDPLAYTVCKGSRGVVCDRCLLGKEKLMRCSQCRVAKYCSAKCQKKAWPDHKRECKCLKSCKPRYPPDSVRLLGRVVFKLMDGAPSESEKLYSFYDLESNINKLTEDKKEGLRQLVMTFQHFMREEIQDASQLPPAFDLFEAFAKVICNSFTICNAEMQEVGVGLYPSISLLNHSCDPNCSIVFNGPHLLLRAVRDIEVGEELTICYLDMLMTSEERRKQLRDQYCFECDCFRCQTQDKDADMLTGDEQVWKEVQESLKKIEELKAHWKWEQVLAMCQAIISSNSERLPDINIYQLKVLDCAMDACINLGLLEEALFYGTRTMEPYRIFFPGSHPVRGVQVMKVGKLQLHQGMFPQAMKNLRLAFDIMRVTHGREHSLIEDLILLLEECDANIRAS
Test: SMYD3 biochemical assay (MTase-Glo, MAP3K2 peptide substrate)
Conditions: Table 3; MTase assay, MAP3K2 peptide substrate; read-out: IC50
Description: A SMYD3 enzymatic assay was developed using Promega's Methyltransferase-Glo™ reagents. In the assay, SMYD3 catalyzes the methylation of the MAP3K2 peptide substrate by transferring a methyl group from SAM to MAP3K2 peptide and further converts the SAM to SAH. The SMYD3 methyltransferase activity is measured based on the amount of SAH produced from the reaction through the use of coupling enzymes that convert the SAH to ATP. The MTase-Glo detection solution then catalyzes the formation of light from ATP.
A final concentration of 1.0 μM and 10 μM SAM and MAP3K2 peptide were added and further incubated for 30 min at room temperature before adding the MTase Glo and detection reagent. Reaction signals were detected using microplate readers on luminescent mode (Safire Tecan). The IC50 was determined by non-linear regression, using GraphPad Prism version, 5.03.

SMILES | IC50 [nM]
CCCOC(=O)N1CCN(C(=O)c2ccc3c(Cl)c4c(nc3c2)CCCC4)CC1 [A001, Propyl 4-(9-chloro-5,6,7,8-tetrahydroacridine-3-carbonyl)piperazine-1-carboxylate] | 400
C=CCOC(=O)N1CCN(C(=O)c2ccc3c(Cl)c4c(nc3c2)CCCC4)CC1 [A002, Allyl 4-(9-chloro-5,6,7,8-tetrahydroacridine-3-carbonyl)piperazine-a1-carboxylate] | 1000
CCCCC(=O)N1CCN(C(=O)c2ccc3c(Cl)c4c(nc3c2)CCCC4)CC1 [A003, 1-(4-(9-Chloro-5,6,7,8-tetrahydroacridine-3-carbonyl)piperazin-1-yl)pentan-1-one] | 1520
CCCOC(=O)N1CC2CCC1CN2C(=O)c1ccc2c(Cl)c3c(nc2c1)CCCC3 (stereo not shown) [A005, Propyl 5-(9-chloro-5,6,7,8-tetrahydroacridine-3-carbonyl)-2,5-diazabicyclo[2.2.2]octane-2-carboxylate] | 4500
O=C(c1ccc2c(Cl)c3c(nc2c1)CCCC3)N1CCN(C(=O)c2cc(C3CC3)on2)CC1 [A006, (9-Chloro-5,6,7,8-tetrahydroacridin-3-yl)(4-(5-cyclopropylisoxazole-3-carbonyl)piperazin-1-yl)methanone] | 6700
CC(C)Cc1cc(C(=O)N2CCN(C(=O)c3ccc4c(Cl)c5c(nc4c3)CCCC5)CC2)no1 [A007, (9-Chloro-5,6,7,8-tetrahydroacridin-3-yl)(4-(5-isobutylisoxazole-3-carbonyl)piperazin-1-yl)methanone] | 6900
CCCOC(=O)N1CCN(C(=O)c2ccc3c(Cl)c4c(nc3c2)CCC(C)C4)CC1 (stereo not shown) [A008, Propyl 4-(9-chloro-7-methyl-5,6,7,8-tetrahydroacridine-3-carbonyl)piperazine-1-carboxylate] | 1300
Cc1cc(C(=O)N2CCN(C(=O)c3ccc4c(Cl)c5c(nc4c3)CCCC5)CC2)no1 [A012, (9-Chloro-5,6,7,8-tetrahydroacridin-3-yl)(4-(5-methylisoxazole-3-carbonyl)piperazin-1-yl)methanone] | 1670
CCCOC(=O)N1CC2CC(C1)N2C(=O)c1ccc2c(Cl)c3c(nc2c1)CCCC3 [A014, Propyl 6-(9-chloro-5,6,7,8-tetrahydroacridine-3-carbonyl)-3,6-diazabicyclo[3.1.1]heptane-3-carboxylate] | 1000
CCCOC(=O)N1CCN(C(=O)c2ccc3c(Cl)c4c(nc3c2)CCCC4)C(CC)C1 (stereo not shown) [A016, Propyl 4-(9-chloro-5,6,7,8-tetrahydroacridine-3-carbonyl)-3-ethylpiperazine-1-carboxylate] | 640
CCCOC(=O)N1CCN(C(=O)c2ccc3c(Cl)c4c(nc3c2)CCCC4)CC1C (stereo not shown) [A018, Propyl 4-(9-chloro-5,6,7,8-tetrahydroacridine-3-carbonyl)-2-methylpiperazine-1-carboxylate] | 390
CCCOC(=O)N1C2CC1CN(C(=O)c1ccc3c(Cl)c4c(nc3c1)CCCC4)C2 [A019, Propyl 3-(9-chloro-5,6,7,8-tetrahydroacridine-3-carbonyl)-3,6-diazabicyclo[3.1.1]heptane-6-carboxylate] | 13100
CC(C)COC(=O)N1CCN(C(=O)c2ccc3c(Cl)c4c(nc3c2)CCCC4)CC1 [A021, Isobutyl 4-(9-chloro-5,6,7,8-tetrahydroacridine-3-carbonyl)piperazine-1-carboxylate] | 840
CCCOC(=O)N1CCN(C(=O)c2ccc3c(Cl)c4c(nc3c2)CC(C)CC4)CC1 (stereo not shown) [A022, Propyl 4-(9-chloro-6-methyl-5,6,7,8-tetrahydroacridine-3-carbonyl)piperazine-1-carboxylate] | 1000
CCCOC(=O)N1CCN(C(=O)c2ccc3c(Cl)c4c(nc3c2)CCCC4C)CC1 (stereo not shown) [A023, Propyl 4-(9-chloro-8-methyl-5,6,7,8-tetrahydroacridine-3-carbonyl)piperazine-1-carboxylate] | 5200
CCCOC(=O)N1CCN(C(=O)c2ccc3c(Cl)c4c(nc3c2)CC(c2ccccc2)CC4)CC1 (stereo not shown) [A024, Propyl 4-(9-chloro-6-phenyl-5,6,7,8-tetrahydroacridine-3-carbonyl)piperazine-1-carboxylate] | 1200
CCCOC(=O)N1CCN(C(=O)c2ccc3c(Cl)c4c(nc3c2)CC(C#N)CC4)CC1 (stereo not shown) [A025, Propyl 4-(9-chloro-6-cyano-5,6,7,8-tetrahydroacridine-3-carbonyl)piperazine-1-carboxylate] | 1900
CCCOC(=O)N1CCN(C(=O)c2ccc3c(Cl)c4c(nc3c2)CCCC4C#N)CC1 (stereo not shown) [A026, Propyl 4-(9-chloro-8-cyano-5,6,7,8-tetrahydroacridine-3-carbonyl)piperazine-1-carboxylate] | 3200
CCCOC(=O)N1CCN(C(=O)c2ccc3c(Cl)c4c(nc3c2)CC(c2cccnc2)CC4)CC1 (stereo not shown) [A027, Propyl 4-(9-chloro-6-(pyridin-3-yl)-5,6,7,8-tetrahydroacridine-3-carbonyl)piperazine-1-carboxylate] | 400
CCCOC(=O)N1CCN(C(=O)c2ccc3c(Cl)c4c(nc3c2)CCC(C(=O)OC)C4)CC1 (stereo not shown) [A029, Methyl 9-chloro-6-(4-(propoxycarbonyl)piperazine-1-carbonyl)-1,2,3,4-tetrahydroacridine-2-carboxylate] | 860
CCCOC(=O)N1CCN(C(=O)c2ccc3c(Cl)c4c(nc3c2)CCCC4)CC1CC (stereo not shown) [A030, Propyl 4-(9-chloro-5,6,7,8-tetrahydroacridine-3-carbonyl)-2-ethylpiperazine-1-carboxylate] | 630
CCCOC(=O)N1CCN(C(=O)c2ccc3c(Cl)c4c(nc3c2)CCCC4)CC1CO (stereo not shown) [A032, Propyl 4-(9-chloro-5,6,7,8-tetrahydroacridine-3-carbonyl)-2-(hydroxymethyl)piperazine-1-carboxylate] | 1200

Now from value to compound:

IC50 [nM] | SMILES
120 | CCCOC(=O)N1CCN(C(=O)c2ccc3c(Cl)c4c(nc3c2)CC(c2ccccn2)CC4)CC1 (single isomer, unassigned) [A053 (Ent-1), Propyl (R/S)-4-(9-chloro-6-(pyridin-2-yl)-5,6,7,8-tetrahydroacridine-3-carbonyl)piperazine-1-carboxylate]
240 | CCCOC(=O)N1CCN(C(=O)c2ccc3c(Cl)c4c(nc3c2)CC(c2ccccn2)CC4)CC1 (single isomer, unassigned) [A053 (Ent-2), Propyl (R/S)-4-(9-chloro-6-(pyridin-2-yl)-5,6,7,8-tetrahydroacridine-3-carbonyl)piperazine-1-carboxylate]
350 | CCCOC(=O)N1CC2CCC(C1)N2C(=O)c1ccc2c(Cl)c3c(nc2c1)CCCC3 [A004, Propyl 8-(9-chloro-5,6,7,8-tetrahydroacridine-3-carbonyl)-3,8-diazabicyclo[3.2.1]octane-3-carboxylate]
360 | CCCOC(=O)N1C2CCC1CN(C(=O)c1ccc3c(Cl)c4c(nc3c1)CCCC4)C2 [A009, Propyl 3-(9-chloro-5,6,7,8-tetrahydroacridine-3-carbonyl)-3,8-diazabicyclo[3.2.1]octane-8-carboxylate]
190 | CCCOC(=O)N1CCN(C(=O)c2ccc3c(Cl)c4c(nc3c2)CCCC4)[C@@H](C)C1 [A010, Propyl (S)-4-(9-chloro-5,6,7,8-tetrahydroacridine-3-carbonyl)-3-methylpiperazine-1-carboxylate]
300 | CCCOC(=O)N1CCN(C(=O)c2ccc3c(Cl)c4c(nc3c2)CCCC4)[C@H](C)C1 [A011, Propyl (R)-4-(9-chloro-5,6,7,8-tetrahydroacridine-3-carbonyl)-3-methylpiperazine-1-carboxylate]
190 | CCCOC(=O)N1C2CCCC1CN(C(=O)c1ccc3c(Cl)c4c(nc3c1)CCCC4)C2 [A013, Propyl 3-(9-chloro-5,6,7,8-tetrahydroacridine-3-carbonyl)-3,9-diazabicyclo[3.3.1]nonane-9-carboxylate]
320 | CCCOC(=O)N1CC2CCCC(C1)N2C(=O)c1ccc2c(Cl)c3c(nc2c1)CCCC3 [A015, Propyl 9-(9-chloro-5,6,7,8-tetrahydroacridine-3-carbonyl)-3,9-diazabicyclo[3.3.1]nonane-3-carboxylate]
290 | CCCOC(=O)N1CC(C)N(C(=O)c2ccc3c(Cl)c4c(nc3c2)CCCC4)CC1C (stereo not shown) [A017, Propyl 4-(9-chloro-5,6,7,8-tetrahydroacridine-3-carbonyl)-2,5-dimethylpiperazine-1-carboxylate]
350 | CCCOC(=O)N1C(C)CN(C(=O)c2ccc3c(Cl)c4c(nc3c2)CCCC4)CC1C (stereo not shown) [A020, Propyl 4-(9-chloro-5,6,7,8-tetrahydroacridine-3-carbonyl)-2,6-dimethylpiperazine-1-carboxylate]
380 | CCCOC(=O)N1CCN(C(=O)c2ccc3c(Cl)c4c(nc3c2)CC(CN)CC4)CC1 (stereo not shown) [A028, Propyl 4-(6-(aminomethyl)-9-chloro-5,6,7,8-tetrahydroacridine-3-carbonyl)piperazine-1-carboxylate]
150 | CCCOC(=O)N1CCN(C(=O)c2ccc3c(Cl)c4c(nc3c2)CCCC4)C(C)C1 (stereo not shown) [A031, Propyl 4-(9-chloro-5,6,7,8-tetrahydroacridine-3-carbonyl)-3-methylpiperazine-1-carboxylate]
